Measured values published in patent US10226451B2, “Substituted bicyclic compounds as bromodomain inhibitors” (ZENITH EPIGENETICS LTD, priority 2013, dated 2019).

Experiments:
[1] = target: T1, Brd4 bromodomain 1 (BRD4(1)) (Homo sapiens, UniProt O60885); experiment: Inhibition of tetra-acetylated histone H4 binding to Brd4 bromodomain 1 (HTRF/FRET); settings: tetra-acetylated histone H4 peptide, His-tagged bromodomain 200 nM, 2 h
T1 construct: made in house; host or cells: E. coli BL21(DE3)
How it was run: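 N-terminally His-tagged bromodomain (200 nM), expressed in E. coli and purified by Ni affinity and size exclusion, was incubated with biotinylated tetra-acetylated H4 peptide (25-50 nM), Eu-cryptate streptavidin and XL665 anti-His in HEPES pH 7.4 buffer with 0.2% DMSO. Reactions ran 2 h at room temperature. IC50 came from the 665/620 nm fluorescence decrease.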

hIL-6 mRNA in U937 cells = experiment: Inhibition of hIL-6 mRNA transcription in LPS-stimulated U937 cells; type: cell-based; settings: Homo sapiens, U-937, PMA-differentiated U937 cells, LPS 1 ug/mL, 3 h, read-out: IL-6 activity
How it was run: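 U937 cells were differentiated to macrophages with 60 ng/mL PMA for 3 days, pretreated 1 h with compound in 0.1% DMSO, then stimulated with 1 ug/mL E. coli LPS for 3 h at 37° C. hIL-6 mRNA was quantified by one-step TaqMan RT-qPCR, normalized to cyclophilin, as fold expression versus control.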

[2] = test system: hIL-17 mRNA in human peripheral blood mononuclear cells; experiment: Inhibition of hIL-17 mRNA transcription in OKT3-stimulated PBMC; type: cell-based; settings: OKT3 antibody, 6 h, read-out: IL-17 activity
How it was run: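 Human PBMC in medium with 20 ng/ml IL-2 were pretreated 1 h at 37 °C with test compound or 0.1% DMSO, then stimulated with OKT3 (10 ug/ml 10× stock) for 6 h. IL-17 mRNA was measured by one-step TaqMan qRT-PCR, normalized to cyclophilin, and expressed as fold change versus control.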

[3] = test system: OCI-3 AML cells xenograft; experiment: In vivo efficacy, acute myeloid leukemia xenograft model using OCI-3 AML cells; parameters: species or system mouse; settings: OCI-3 AML xenograft, nu/nu mice, oral dosing, tumor growth inhibition
Description: OCI-3 AML cells (DMSZ) were grown under standard cell culture conditions and (NCr) nu/nu fisol strain of female mice age 6-7 weeks were injected with 10×10^6 cells/animal in 100 μL PBS+100 μL Matrigel in the lower left abdominal flank. By approximately day 18-21 after OCI-3 AML cells injection, mice were randomized based on tumor volume (L×W×H)/2) of average ˜100-300 mm^3. Mice were dosed orally with compound at 30 mg/kg b.i.d on a continuous dosing schedule and at 2.5 to 45 mg/kg q.d. on a 5 day on and 2 day off dosing schedule in EA006 formulation at 10 mL/kg body weight dose volume. Tumor measurements were taken with electronic micro calipers and body weights measured on alternate days beginning from dosing period. The average tumor volumes, percent Tumor Growth Inhibition (TGI) and % change in body weights were compared relative to Vehicle control animals. The means, statistical analysis and the comparison between groups were calculated using Student's t-test in Excel.

[4] = test system: Bcl2 and c-myc gene expression in MV4-11 and MM1.s tumors; experiment: Evaluation of target engagement in xenograft tumors (PD biomarkers); type: in vivo, mouse; settings: oral dose, tumors harvested 3, 6, 12, 24 hrs post dose
Description: MV4-11 and MM1.s cells (ATCC) were grown under standard cell culture conditions and (NCr) nu/nu fisol strain of female mice age 6-7 weeks were injected with 5×10^6 cells/animal in 100 μL PBS+100 μL Matrigel in the lower left abdominal flank. By approximately day 28 after MV4-11 and MM1.s cells injection, mice were randomized based on tumor volume (L×W×H)/2) of average ˜500 mm^3. Mice were dosed orally with compound in EA006 formulation at 10 mL/kg body weight dose volume and tumors harvested 3, 6, 12, 24 hrs post dose for Bcl2 and c-myc gene expression analysis as PD biomarkers.

- IC50 [1]: ≤ 300 nM
- IC50 (hIL-6 mRNA in U937 cells): ≤ 300 nM
- IC50 [2]: ≤ 300 nM
Compound: Cc1noc(C)c1-c1cc(-c2c(C)nn(C)c2C)c2c(c1)[nH]c(=O)n2C [Example Compound 9, 5-(3,5-dimethylisoxazol-4-yl)-1-methyl-7-(1,3,5-trimethyl-1H-pyrazol-4-yl)-1H-benzo[d]imidazol-2(3H)-one]
- In vivo activity [3]: Active
- In vivo activity [4]: Active
